Laboratory results published in patent US12577242B2, “Pyrrolopyridine and imidazopyridine antiviral compounds” (KATHOLIEKE UNIVERSITEIT LEUVEN, priority 2020, dated 2026).

Key:
[1] = Cytotoxicity in MDBK cells (no BVD virus added); conditions: bovine, MDBK cells (Madin-Darby bovine kidney), no virus added
[2] = system: Bovine viral diarrhea (BVD) virus; experiment: Anti-BVDV CPE inhibition assay in MDBK cells; conditions: for EC50: Bovine viral diarrhea virus isolates and strains, MDBK, in Bos taurus, 96 h; for SI (selectivity index, ratio of CC50 and EC50): CC50/EC50, MDBK cells, BVD virus

Row | Structure (SMILES) | CC50 at 4 days [1] | EC50 [2] | SI (selectivity index, ratio of CC50 and EC50) [2]
1 | Cc1ccc2sc(Cn3ccc4nc(-c5cnn(C)c5C)nc-4c3)nc2c1 [CPD-2, 2-((2-(1,5-dimethyl-1H-pyrazol-4-yl)-5H-imidazo[4,5-c]pyridin-5-yl)methyl)-5-methylbenzo[d]thiazole] | > 50000 nM | 79 ± 4 nM | >633
2 | Cc1c(-c2nc3ccn(Cc4nc5ccccc5s4)cc-3n2)cnn1C [CPD-3, 2-((2-(1,5-dimethyl-1H-pyrazol-4-yl)-5H-imidazo[4,5-c]pyridin-5-yl)methyl)benzo[d]thiazole] | > 50000 nM | 78 ± 5 nM | >641
3 | Cc1c(-c2nc3ccn(Cc4nc5cc(Cl)ccc5s4)cc-3n2)cnn1C [CPD-4, 5-chloro-2-((2-(1,5-dimethyl-1H-pyrazol-4-yl)-5H-imidazo[4,5-c]pyridin-5-yl)methyl)benzo[d]thiazole] | > 50000 nM | 84 ± 3 nM | >595
4 | Cc1c(-c2nc3ccn(Cc4nc5ccc(Cl)cc5s4)cc-3n2)cnn1C [CPD-5, 6-chloro-2-((2-(1,5-dimethyl-1H-pyrazol-4-yl)-5H-imidazo[4,5-c]pyridin-5-yl)methyl)benzo[d]thiazole] | > 50000 nM | 27 ± 27 nM | >1852
5 | Cc1c(-c2nc3ccn(Cc4nc5ccc6ccccc6c5s4)cc-3n2)cnn1C [CPD-6, 2-((2-(1,5-dimethyl-1H-pyrazol-4-yl)-5H-imidazo[4,5-c]pyridin-5-yl)methyl)naphtho[2,1-d]thiazole] | > 50000 nM | 14 ± 1 nM | >3571
6 | Cc1ccc2oc(Cn3ccc4nc(-c5cnn(C)c5C)nc-4c3)nc2c1 [CPD-8, 2-((2-(1,5-dimethyl-1H-pyrazol-4-yl)-5H-imidazo[4,5-c]pyridin-5-yl)methyl)-5-methylbenzo[d]oxazole] | > 50000 nM | 79 ± 4 nM | >633
7 | Cc1c(-c2nc3ccn(Cn4nnc5ccccc54)cc-3n2)cnn1C [CPD-9, 1-((2-(1,5-dimethyl-1H-pyrazol-4-yl)-5H-imidazo[4,5-c]pyridin-5-yl)methyl)-1H-benzo[d][1,2,3]triazole] | 22000 nM | 346 ± 86 nM | 64
8 | Cc1ccc2sc(Cn3ccc4nc(-c5cn(C)nc5C)nc-4c3)nc2c1 [CPD-11, 2-((2-(1,3-dimethyl-1H-pyrazol-4-yl)-5H-imidazo[4,5-c]pyridin-5-yl)methyl)-5-methylbenzo[d]thiazole] | > 50000 nM | 300 ± 100 nM | >167
9 | Cc1ccc2oc(Cn3ccc4nc(-c5cn(C)nc5C)nc-4c3)nc2c1 [CPD-12, 2-((2-(1,3-dimethyl-1H-pyrazol-4-yl)-5H-imidazo[4,5-c]pyridin-5-yl)methyl)-5-methylbenzo[d]oxazole] | > 50000 nM | 256 ± 111 nM | >195
10 | Cc1nn(C)c(C)c1-c1nc2ccn(Cc3cc(-c4cc(F)ccc4F)no3)cc-2n1 [CPD-13, 3-(2,5-difluorophenyl)-5-((2-(1,3,5-trimethyl-1H-pyrazol-4-yl)-5H-imidazo[4,5-c]pyridin-5-yl)methyl)isoxazole] | > 50000 nM | 95 ± 22 nM | >526
11 | COc1ncccc1-c1nc2ccn(Cc3nc4ccc(C)cc4s3)cc-2n1 [CPD-14, 2-((2-(2-methoxypyridin-3-yl)-5H-imidazo[4,5-c]pyridin-5-yl)methyl)-6-methylbenzo[d]thiazole] | > 50000 nM | 20 ± 4 nM | >2500
12 | COc1ncccc1-c1nc2ccn(Cc3nc4cc(C)ccc4s3)cc-2n1 [CPD-15, 2-((2-(2-methoxypyridin-3-yl)-5H-imidazo[4,5-c]pyridin-5-yl)methyl)-5-methylbenzo[d]thiazole] | > 50000 nM | 86 ± 4 nM | >581
13 | COc1ncccc1-c1nc2ccn(Cc3nc4cc(C)ccc4o3)cc-2n1 [CPD-16, 2-((2-(2-methoxypyridin-3-yl)-5H-imidazo[4,5-c]pyridin-5-yl)methyl)-5-methylbenzo[d]oxazole] | > 50000 nM | 117 nM | >427
14 | COc1ncccc1-c1nc2ccn(Cc3cc(-c4cc(F)ccc4F)no3)cc-2n1 [CPD-17, 3-(2,5-difluorophenyl)-5-((2-(2-methoxypyridin-3-yl)-5H-imidazo[4,5-c]pyridin-5-yl)methyl)isoxazole] | 100000 nM | 72 ± 2 nM | 1389
15 | COc1ccccc1-c1nc2ccn(Cc3nc4ccc(C)cc4s3)cc-2n1 [CPD-18, 2-((2-(2-methoxyphenyl)-5H-imidazo[4,5-c]pyridin-5-yl)methyl)-6-methylbenzo[d]thiazole] | 20000 nM | 2 ± 1 nM | 10000
16 | COc1ccccc1-c1nc2ccn(Cc3cc(-c4cc(F)ccc4F)no3)cc-2n1 [CPD-19, 3-(2,5-difluorophenyl)-5-((2-(2-methoxyphenyl)-5H-imidazo[4,5-c]pyridin-5-yl)methyl)isoxazole] | 19000 nM | 4 ± 1 nM | 4750

Row | Structure (SMILES) | CC50 at 4 days [1] | EC50 [2] | SI (selectivity index, ratio of CC50 and EC50) [2]
17 | COc1ccccc1-c1nc2ccn(Cn3nnc4ccccc43)cc-2n1 [CPD-20, 1-((2-(2-methoxyphenyl)-5H-imidazo[4,5-c]pyridin-5-yl)methyl)-1H-benzo[d][1,2,3]triazole] | > 50000 nM | 87 ± 3 nM | >575
18 | Cc1ccc2nc(Cn3ccc4nc(-c5ccccc5OC(F)F)nc-4c3)sc2c1 [CPD-21, 2-((2-(2-(difluoromethoxy)phenyl)-5H-imidazo[4,5-c]pyridin-5-yl)methyl)-6-methylbenzo[d]thiazole] | 31000 nM | 409 nM | 76
19 | Cc1ccc2nc(Cn3ccc4nc(-c5ccccc5F)nc-4c3)sc2c1 [CPD-22, 2-((2-(2-fluorophenyl)-5H-imidazo[4,5-c]pyridin-5-yl)methyl)-6-methylbenzo[d]thiazole] | > 100000 nM | 19 ± 5 nM | >5263
20 | Cc1ccc2sc(Cn3ccc4nc(-c5ccccc5F)nc-4c3)nc2c1 [CPD-23, 2-((2-(2-fluorophenyl)-5H-imidazo[4,5-c]pyridin-5-yl)methyl)-5-methylbenzo[d]thiazole] | > 50000 nM | 84 ± 29 nM | >595
21 | Fc1ccccc1-c1nc2ccn(Cc3nc4ccccc4s3)cc-2n1 [CPD-24, 2-((2-(2-fluorophenyl)-5H-imidazo[4,5-c]pyridin-5-yl)methyl)benzo[d]thiazole] | > 50000 nM | 299 ± 91 nM | >167
22 | Fc1ccccc1-c1nc2ccn(Cc3nc4ccc(Cl)cc4s3)cc-2n1 [CPD-25, 6-chloro-2-((2-(2-fluorophenyl)-5H-imidazo[4,5-c]pyridin-5-yl)methyl)benzo[d]thiazole] | > 50000 nM | 78 ± 4 nM | >641
23 | Fc1ccccc1-c1nc2ccn(Cc3nc4cc(Cl)ccc4s3)cc-2n1 [CPD-26, 5-chloro-2-((2-(2-fluorophenyl)-5H-imidazo[4,5-c]pyridin-5-yl)methyl)benzo[d]thiazole] | > 50000 nM | 96 ± 6 nM | >521
24 | OCc1ccc2nc(Cn3ccc4nc(-c5ccccc5F)nc-4c3)sc2c1 [CPD-27, (2-((2-(2-fluorophenyl)-5H-imidazo[4,5-c]pyridin-5-yl)methyl)benzo[d]thiazol-6-yl)methanol] | > 50000 nM | 366 nM | >137
25 | Fc1ccccc1-c1nc2ccn(Cc3ncc(-c4ccccc4)s3)cc-2n1 [CPD-28, 2-((2-(2-fluorophenyl)-5H-imidazo[4,5-c]pyridin-5-yl)methyl)-5-phenylthiazole] | > 50000 nM | 82 nM | >610
26 | Fc1ccccc1-c1nc2ccn(Cc3ccc(Cl)s3)cc-2n1 [CPD-30, 5-((5-chlorothiophen-2-yl)methyl)-2-(2-fluorophenyl)-5H-imidazo[4,5-c]pyridine] | > 50000 nM | 129 ± 61 nM | >388
27 | Cc1ccc2oc(Cn3ccc4nc(-c5ccccc5F)nc-4c3)nc2c1 [CPD-31, 2-((2-(2-fluorophenyl)-5H-imidazo[4,5-c]pyridin-5-yl)methyl)-5-methylbenzo[d]oxazole] | > 50000 nM | 306 ± 98 nM | >163
28 | Cc1ccc2nc(Cn3ccc4nc(-c5ccccc5F)nc-4c3)oc2c1 [CPD-32, 2-((2-(2-fluorophenyl)-5H-imidazo[4,5-c]pyridin-5-yl)methyl)-6-methylbenzo[d]oxazole] | > 50000 nM | 377 ± 16 nM | >133
29 | COc1ccc2oc(Cn3ccc4nc(-c5ccccc5F)nc-4c3)nc2c1 [CPD-33, 2-((2-(2-fluorophenyl)-5H-imidazo[4,5-c]pyridin-5-yl)methyl)-5-methoxybenzo[d]oxazole] | > 50000 nM | 447 nM | >112
30 | Fc1ccc(-c2cc(Cn3ccc4nc(-c5ccccc5F)nc-4c3)on2)c(F)c1 [CPD-34, 3-(2,4-difluorophenyl)-5-((2-(2-fluorophenyl)-5H-imidazo[4,5-c]pyridin-5-yl)methyl)isoxazole] | > 50000 nM | 92 ± 49 nM | >543
31 | Fc1ccc(F)c(-c2cc(Cn3ccc4nc(-c5ccccc5F)nc-4c3)on2)c1 [CPD-35, 3-(2,5-difluorophenyl)-5-((2-(2-fluorophenyl)-5H-imidazo[4,5-c]pyridin-5-yl)methyl)isoxazole] | > 50000 nM | 75 ± 24 nM | >667
